Laboratory results reported in ChEMBL document CHEMBL1129849, “Synthesis and evaluation of delta lactams as nonpeptide HIV-protease inhibitors” (Bioorg Med Chem Lett, 1997).

target: Human immunodeficiency virus type 1 protease (Human immunodeficiency virus 1, UniProt Q72874); assay: Compound was tested for the inhibitory activity against HIV-protease

**Q.** How did the Ki turn out when `O=C1N[C@H](CCc2ccccc2)[C@@H](O)[C@@H](Cc2ccccc2)N1Cc1ccccc1` was run?
**A.** Its Ki is 0.066 µM.

**Q.** With `O=C1N(Cc2ccccc2)C[C@H](O)[C@@H](Cc2ccccc2)N1Cc1ccccc1` as the compound, how does the Ki read?
**A.** The Ki was 11 µM.

**Q.** How did the Ki turn out when `O=C1N(Cc2ccccc2)C[C@@H](O)[C@@H](Cc2ccccc2)N1Cc1ccccc1` was run?
**A.** Its Ki is 0.0025 µM.

**Q.** For `O=C1[C@@H](Cc2ccccc2)C[C@@H](O)[C@@H](Cc2ccccc2)N1Cc1ccccc1`, which Ki is on record?
**A.** Its Ki is 9.4 µM.
